# Literature values in patent US20130109633A1, “CB-183,315 Compositions and Related Methods” (Cubist Pharmaceuticals, Inc., priority 2011, published 2013).
# System: a broad spectrum of bacteria, including drug-resistant bacteria and C. difficile
substance,measurement,value
"CB-183,315",antibacterial activity,antibacterial activity against a broad spectrum of bacteria
same,bacteriacidal activity,exhibits bacteriacidal activity
